Read-outs that look alike come from different tables or passages of the source.
Columns and labels:
rat FPT = biological target: T1, rat FPT (Rattus norvegicus, UniProt Q02293+Q04631); assay: PFT Inhibitory Activity (protein farnesyl transferase); format: biochemical; conditions: 30° C., 30 minutes
T1 construct: made in house; host or cells: Sf9 insect cells
Procedure: The protein farnesyl transferase (PFT) or farnesyl protein transferase (FPT) inhibitory activity of compounds of the present invention were assayed in HEPES buffer (pH 7.4) containing 5 mM potassium phosphate and 20 μM ZnCl2. The solution also contained 5 mM DTT (dithiothreitol), 5 mM MgCl2, and 0.1% PEG 8000. Assays were performed in 96-well plates (Wallec, Finland) and employed solutions composed of varying concentrations of a compound of the present invention in 10% DMSO (dimethylsulfoxide). Upon addition of both substrates, radiolabeled farnesyl pyrophosphate ([1^3 H], specific activity 15-30 Ci/mmol, final concentration 134 nM) and (biotinyl)-Ahe-Thr-Lys-Cys-Val-Ile-Met ([3aS[3a α, 4 β, 6a α]-hexahydro-2-oxo-1H-thieno[3,4-d]imidazole-5-pentanoicacid]-[7-aminoheptanoic acid]-Thr-Lys-Cys-Val-Ile-Met). Ahe is 7-aminoheptanoic acid, Thr is threonine, Lys is lysine, Cys is cysteine, Val is valine, Ile is isoleucine, and Met is methionine (final concentration 0.2 μM); the enzyme reaction was started by addition of SF9 affinity purified rat FPT. After incubation at 30° C. for 30 minutes, the reaction was terminated by diluting the reaction 2.5-fold with a stop buffer containing 1.5 M magnesium acetate, 0.2 M H3 PO4, 0.5% BSA (bovine serum albumin), and strepavidin beads (Amersham, Arlington Heights, Ill.) at a concentration of 1.3 mg/mL. After allowing the plate to settle for 30 minutes at room temperature, radioactivity was quantitated on a microBeta counter (Model 1450, Wallec, Finland). The assay was also carried out without 5 mM potassium phosphate.

[1] = tested on: ras protein in ras-transformed cells; assay: Mobility Shift Assay (ras farnesylation in ras-transformed cells); format: cell-based; conditions: 18-hour incubation, read-out: Mobility Shift MED
Procedure: Twenty-four hours after planting 2×10^6 ras-transformed cells per treatment condition, the farnesylation inhibitor is added at varying concentrations. Following an 18-hour incubation period, cells are lysed in phosphate-buffered saline containing 1% Triton X-100, 0.5% sodium deoxycholate, and 0.1% SDS (sodium dodecyl sulfate), pH 7.4 in the presence of several protease inhibitors (PMSF (phenylmethylsulfonylfluoride), antipain, leupeptin, pepstatin A, and aprotinin all at 1 μg/mL). Ras protein is immunoprecipitated from the supernatants by the addition of 3 μg v-H-ras Ab-2 (Y13-259 antibody from Oncogene Science, Cambridge, Mass.). After overnight immunoprecipitation, 30 μL of a 50% protein G-Sepharose slurry (Pharmacia, Uppsala, Sweden) is added followed by 45-minute incubation. Pellets are resuspended in 2X tris-glycine loading buffer (Novex, San Diego, Calif.) containing 5% mercaptoethanol and then denatured by 5 minutes boiling prior to electrophoresis on 14% Tris-glycine SDS gels. Using Western transfer techniques, proteins are transferred to nitrocellulose membranes followed by blocking in blocking buffer. Upon overnight incubation with primary antibody (pan-ras Ab-2 from Oncogene Science, Cambridge, Mass.), an antimouse HRP (horseradish peroxidase) conjugate secondary antibody (Amersham) is employed for detection of the ras protein. Blots are developed using ECL (enhanced chemiluminescence) techniques (Amersham, Arlington Heights, Ill.).

[2] = tested on: EJ-1 human bladder carcinoma; conditions: 100 mg/kg, xenografts in nude mice; cited from earlier work
[3] = tested on: HT1080 human fibrosarcoma; conditions: 100 mg/kg, xenografts in nude mice; cited from earlier work
human colon carcinoma = conditions: 100 mg/kg, xenografts in nude mice; cited from earlier work
[4] = tested on: human lung carcinoma with K-ras mutation and p53 deletion; conditions: nude mice; cited from earlier work
[5] = tested on: mammary and salivary carcinomas in ras transgenic mice; conditions: daily administration; cited from earlier work
[6] = HEPES buffer pH 7.4 with 5 mM potassium phosphate, read-out: IC50 (μM) Hepes + 5 mM Phosphate
[7] = HEPES buffer pH 7.4 without 5 mM potassium phosphate, read-out: IC50 (μM) Hepes

Row | IC50 (rat FPT; [6]) [µM] | IC50 (rat FPT; [7]) [µM] | SMILES | minimal effective concentration [1] [µM] | other results
1 | 0.068 | 0.064 | Cn1c(=O)cc(-c2cccc(Cl)c2)c2cc(OC(Cn3ccnc3)c3ccccc3)ccc21 (stereo not drawn) [Example 1, 4-(3-Chloro-phenyl)-6-(2-imidazol-1-yl-1-phenyl-ethoxy)-1-methyl-1H-quinolin-2-one] | 1 | 
2 | 0.99 | 0.7 | Cn1c(=O)cc(-c2cccc(Cl)c2)c2ccc(OC(Cn3ccnc3)c3ccccc3)cc21 (stereo not drawn) [Example 2, 4-(3-Chloro-phenyl)-7-(2-imidazol-1-yl-1-phenyl-ethoxy)-1-methyl-1H-quinolin-2-one] | > 1 | 
3 | 3.6 | 9.8 | Cn1c(=O)cc(-c2cccc(Cl)c2)c2cc(OCc3c[nH]cn3)ccc21 [Example 3, 4-(3-Chloro-phenyl)-6-(1H-imidazol-4-ylmethoxy)-1-methyl-1H-quinolin-2-one] |  | 
4 | 1.8 | 1.7 | Cn1cncc1C(Oc1ccc2c(c1)c(-c1cccc(Cl)c1)cc(=O)n2C)c1ccccc1 (stereo not drawn) [Example 4, 4-(3-Chloro-phenyl)-1-methyl-6-[(3-methyl-3H-imidazol-4-yl)-phenyl-methoxy]-1H-quinolin-2-one] |  | 
5 | 0.8 | 0.74 | O=c1cc(-c2ccccc2)c2ccc(OC(Cn3ccnc3)c3ccccc3)cc2o1 (stereo not drawn) [Example 5, 7-(2-Imidazol-1-yl-1-phenyl-ethoxy)-4-phenyl-chromen-2-one] | 0.2 | 
6 | 0.32 | 0.29 | O=c1cc(-c2cccc(Cl)c2)c2ccc(OC(Cn3ccnc3)c3ccccc3)cc2o1 (stereo not drawn) [Example 6, 4-(3-Chloro-phenyl)-7-(2-imidazol-1-yl-1-phenyl-ethoxy)-chromen-2-one] | 1 | 
7 | 1.4 | 0.5 | Cc1cccc(-c2cc(=O)oc3cc(OC(Cn4ccnc4)c4ccccc4)ccc23)c1 (stereo not drawn) [Example 7, 7-(2-Imidazol-1-yl-1-phenyl-ethoxy)-4-m-tolyl-chromen-2-one] |  | 
8 | 0.92 | 0.98 | Cc1ccccc1-c1cc(=O)oc2cc(OC(Cn3ccnc3)c3ccccc3)ccc12 (stereo not drawn) [Example 8, 7-(2-Imidazol-1-yl-1-phenyl-ethoxy)-4-o-tolyl-chromen-2-one] |  | 
9 | 1.6 | 1.8 | O=c1cc(-c2ccc(Cl)cc2)c2ccc(OC(Cn3ccnc3)c3ccccc3)cc2o1 (stereo not drawn) [Example 9, 4-(4-Chloro-phenyl)-7-(2-imidazol-1-yl-1-phenyl-ethoxy)-chromen-2-one] |  | 
10 | 0.29 | 0.14 | O=c1cc(-c2ccccc2Cl)c2ccc(OC(Cn3ccnc3)c3ccccc3)cc2o1 (stereo not drawn) [Example 10, 4-(2-Chloro-phenyl)-7-(2-imidazol-1-yl-1-phenyl-ethoxy)-chromen-2-one] | > 0.2 | 
11 | 0.52 | 0.67 | Cc1ccc(-c2cc(=O)oc3cc(OC(Cn4ccnc4)c4ccccc4)ccc23)cc1 (stereo not drawn) [Example 11, 7-(2-imidazol-1-yl-1-phenyl-ethoxy)-4-p-totyl-chromen-2-one] | 1 | 
12 | 0.64 | 0.63 | C=CCc1c(OC(Cn2ccnc2)c2ccccc2)ccc2c(-c3ccccc3)cc(=O)oc12 (stereo not drawn) [Example 12, 8-allyl-7-(2-imidazol-1-yl-1-phenyl-ethoxy)-4-phenyl-chromen-2-one] | > 1 | 
13 |  |  | COC(=O)[C@H](CCSC)NC(=O)[C@H](/C=C\[C@@H](/C=C/[C@@H](N)CS)C(C)C)Cc1ccccc1 [Example B1086] |  | tumor growth inhibition [2]: inhibit tumor growth; tumor growth inhibition [3]: inhibit tumor growth; tumor growth inhibition (human colon carcinoma): inhibit tumor growth
14 |  |  | CSCC[C@H](NC(=O)c1ccc(NC[C@@H](N)CS)cc1-c1ccccc1)C(=O)O [FT1276] |  | block of tumor growth [4]: selectively block tumor growth
15 |  |  | CC[C@H](C)[C@@H](CO[C@@H](Cc1ccccc1)C(=O)N[C@@H](CCS(C)(=O)=O)C(=O)OC(C)C)NC[C@@H](N)CS [L-744,832] |  | tumor regression [5]: caused tumor regression
